Assay results reported in patent US20140256687A1, “Agricultural and Horticultural Insecticide Composition and Method for Using the Same” (priority 2011, published 2014).

Tests used:
Plutella xylostella = test: Control effect on Plutella xylostella (cabbage, greenhouse spray test); type: in vivo; conditions: spray 800 L/ha, g a.i./ha: flubendiamide 60, dichlorvos 400, profenofos 320; for Number of surviving larvae 2 days after treatment / Number of surviving larvae 6 days after treatment: 3rd-instar larvae on Brassica oleracea var. capitata, three plants per plot; for Control effect (%) 2 days after treatment / Control effect (%) 6 days after treatment: formula 1
Chilo suppressalis = test: Control effect on Chilo suppressalis (potted rice spray test); type: in vivo; conditions: spray 400 L/ha, g a.i./ha: flubendiamide 30, dichlorvos 393, profenofos 500; for Percentage of control (%): control effect by formula 2; for Percentage of control (%) / Percentage of damaged stems (%): 29 days after treatment; for Number of stems at 29 days after treatment, Damaged stems / Number of stems at 29 days after treatment, Normal stems: rice (Kinmaze) in pots, 60 larvae per pot
Method: Rice plants (variety: Kinmaze) were planted in 2-L pots and grown to a height of about 80 cm (about 82 days after transplantation, 18 to 25 sheaths). The depth of paddy water in each pot was adjusted to 4 cm and then spray treatment to the rice plants was conducted with an agrochemical solution diluted to a predetermined concentration in an amount equivalent to 400 L/ha. After the spray-treated plants were air-dried, each pot was covered with a vinyl chloride cylindrical cover 30 cm in height. At 1 day before the treatment and at 5 and 12 days after the treatment, 20 larvae of the test insect pest Chilo suppressalis were released into each of the covered pots (60 larvae in total per pot). At 29 days after the treatment, in each pot, the number of damaged stems of the rice plants was counted, the percentage of damaged stems was calculated, and from this percentage, the control effect was calculated according to formula 2. In addition, the expected value was calculated according to Colby's equation in the same manner as in Test Example 1.
Control effect (%)=100−(the percentage of damaged stems in a treatment plot/the percentage of damaged stems in a non-treatment plot)×100 <Formula 2>

| SMILES | Number of surviving larvae 2 days after treatment (Plutella xylostella) | Number of surviving larvae 6 days after treatment (Plutella xylostella) | Control effect (%) 2 days after treatment (Plutella xylostella) [%] | Control effect (%) 6 days after treatment (Plutella xylostella) [%] | Percentage of control (%) (Chilo suppressalis) | Number of stems at 29 days after treatment, Damaged stems (Chilo suppressalis) | Number of stems at 29 days after treatment, Normal stems (Chilo suppressalis) | Percentage of damaged stems (%) (Chilo suppressalis) |
| --- | --- | --- | --- | --- | --- | --- | --- | --- |
| COP(=O)(OC)OC=C(Cl)Cl [Dichlorvos, 2,2-dichlorovinyl dimethyl phosphate] | 188 | 212 | 16 | 0 | 7.5 | 38 | 7 | 84.4 |
| Cc1cc(C(F)(C(F)(F)F)C(F)(F)F)ccc1NC(=O)c1cccc(I)c1C(=O)NC(C)(C)CS(C)(=O)=O [Flubendiamide, 3-iodo-W-(2-mesyl-1,1-dimethylethyl)-N-{4-[1,2,2,2-tetrafluoro-1-(trifluoromethyl)ethyl]-o-tolyl}phthalamide] | 307 | 56 | 39 | 88 | 54.0 | 21 | 29 | 42.0 |
| CCCSP(=O)(OCC)Oc1ccc(Br)cc1Cl (stereo not drawn) [Profenofos, O-4-bromo-2-chlorophenyl O-ethyl S-propyl phosphorothioate] | 121 | 44 | 48 | 80 | 27.7 | 35 | 18 | 66.0 |
